Activity calls are given as the source filed them. The rule behind the calls is not given here.
Assays:
Mus musculus [1] = test: Anticonvulsant activity in Carworth farms No.1 albino mouse assessed as protection against maximum electroshock at 30 mg/kg, ip measured after 0.5 hrs; format: functional, organism-based; set-up: dose 30 mg/kg
Mus musculus [2] = test: Anticonvulsant activity in Carworth farms No.1 albino mouse assessed as protection against maximum electroshock at 100 mg/kg, ip measured after 0.5 hrs; format: functional, organism-based; set-up: dose 100 mg/kg
Mus musculus [3] = test: Anticonvulsant activity in Carworth farms No.1 albino mouse assessed as protection against maximum electroshock at 300 mg/kg, ip measured after 0.5 hrs; format: functional, organism-based; set-up: dose 300 mg/kg
Mus musculus [4] = test: Anticonvulsant activity in Carworth farms No.1 albino mouse assessed as protection against maximum electroshock at 30 mg/kg, ip measured after 4 hrs; format: functional, organism-based; set-up: dose 30 mg/kg
Mus musculus [5] = test: Anticonvulsant activity in Carworth farms No.1 albino mouse assessed as protection against maximum electroshock at 100 mg/kg, ip measured after 4 hrs; format: functional, organism-based; set-up: dose 100 mg/kg
Mus musculus [6] = test: Anticonvulsant activity in Carworth farms No.1 albino mouse assessed as protection against maximum electroshock at 300 mg/kg, ip measured after 4 hrs; format: functional, organism-based; set-up: dose 300 mg/kg
Mus musculus [7] = test: Anticonvulsant activity in Carworth farms No.1 albino mouse assessed as protection against subcutaneous metrazole-induced seizures at 30 mg/kg, ip measured after 0.5 hrs; format: functional, organism-based; set-up: dose 30 mg/kg
Mus musculus [8] = test: Anticonvulsant activity in Carworth farms No.1 albino mouse assessed as protection against subcutaneous metrazole-induced seizures at 100 mg/kg, ip measured after 0.5 hrs; format: functional, organism-based; set-up: dose 100 mg/kg
Mus musculus [9] = test: Anticonvulsant activity in Carworth farms No.1 albino mouse assessed as protection against subcutaneous metrazole-induced seizures at 300 mg/kg, ip measured after 0.5 hrs; format: functional, organism-based; set-up: dose 300 mg/kg
Mus musculus [10] = test: Anticonvulsant activity in Carworth farms No.1 albino mouse assessed as protection against subcutaneous metrazole-induced seizures at 30 mg/kg, ip measured after 4 hrs; format: functional, organism-based; set-up: dose 30 mg/kg
Mus musculus [11] = test: Anticonvulsant activity in Carworth farms No.1 albino mouse assessed as protection against subcutaneous metrazole-induced seizures at 100 mg/kg, ip measured after 4 hrs; format: functional, organism-based; set-up: dose 100 mg/kg
Mus musculus [12] = test: Anticonvulsant activity in Carworth farms No.1 albino mouse assessed as protection against subcutaneous metrazole-induced seizures at 300 mg/kg, ip measured after 4 hrs; format: functional, organism-based; set-up: dose 300 mg/kg
Mus musculus [13] = test: Neurotoxicity in Carworth farms No.1 albino mouse assessed as neurological impairment at 30 mg/kg, ip measured after 0.5 hrs; format: toxicity, organism-based; set-up: dose 30 mg/kg, route intraperitoneal; conditions: in vivo
Mus musculus [14] = test: Neurotoxicity in Carworth farms No.1 albino mouse assessed as neurological impairment at 100 mg/kg, ip measured after 0.5 hrs; format: toxicity, organism-based; set-up: dose 100 mg/kg, route intraperitoneal; conditions: in vivo
Mus musculus [15] = test: Neurotoxicity in Carworth farms No.1 albino mouse assessed as neurological impairment at 30 mg/kg, ip measured after 4 hrs; format: toxicity, organism-based; set-up: dose 30 mg/kg, route intraperitoneal; conditions: in vivo
Mus musculus [16] = test: Neurotoxicity in Carworth farms No.1 albino mouse assessed as neurological impairment at 100 mg/kg, ip measured after 4 hrs; format: toxicity, organism-based; set-up: dose 100 mg/kg, route intraperitoneal; conditions: in vivo
Mus musculus [17] = test: Neurotoxicity in Carworth farms No.1 albino mouse assessed as neurological impairment at 300 mg/kg, ip measured after 4 hrs; format: toxicity, organism-based; set-up: dose 300 mg/kg, route intraperitoneal; conditions: in vivo
Mus musculus [18] = test: Neurotoxicity in Carworth farms No.1 albino mouse assessed as inability to grasp rotarod at 300 mg/kg, ip measured after 0.5 hrs; format: toxicity, organism-based; set-up: dose 300 mg/kg, route intraperitoneal; conditions: in vivo
Mus musculus [19] = test: Anticonvulsant activity in ip dosed Carworth farms No.1 albino mouse assessed as protection against maximum electroshock; format: functional
Mus musculus [20] = test: Anticonvulsant activity in ip dosed Carworth farms No.1 albino mouse assessed as protection against subcutaneous metrazole-induced seizures; format: functional
[21] = Neurotoxicity in ip dosed Carworth farms No.1 albino mouse assessed as inability to grasp rotarod measured after 0.25 hrs; format: toxicity, organism-based; conditions: in vivo
Rattus norvegicus [22] = test: Anticonvulsant activity in Sprague-Dawley rat assessed as protection against maximum electroshock at 30 mg/kg, po measured after 0.25 hrs; format: functional, organism-based; set-up: dose 30 mg/kg
Rattus norvegicus [23] = test: Anticonvulsant activity in Sprague-Dawley rat assessed as protection against maximum electroshock at 30 mg/kg, po measured after 0.5 hrs; format: functional, organism-based; set-up: dose 30 mg/kg
Rattus norvegicus [24] = test: Anticonvulsant activity in Sprague-Dawley rat assessed as protection against maximum electroshock at 30 mg/kg, po measured after 1 hr; format: functional, organism-based; set-up: dose 30 mg/kg
Rattus norvegicus [25] = test: Anticonvulsant activity in Sprague-Dawley rat assessed as protection against maximum electroshock at 30 mg/kg, po measured after 2 hrs; format: functional, organism-based; set-up: dose 30 mg/kg
Rattus norvegicus [26] = test: Anticonvulsant activity in Sprague-Dawley rat assessed as protection against maximum electroshock at 30 mg/kg, po measured after 4 hrs; format: functional, organism-based; set-up: dose 30 mg/kg
Rattus norvegicus [27] = test: Neurotoxicity in Sprague-Dawley rat assessed as neurological impairment at 30 mg/kg, po measured after 0.25 hrs; format: toxicity, organism-based; set-up: dose 30 mg/kg, route oral; conditions: in vivo
Rattus norvegicus [28] = test: Neurotoxicity in Sprague-Dawley rat assessed as neurological impairment at 30 mg/kg, po measured after 0.5 hrs; format: toxicity, organism-based; set-up: dose 30 mg/kg, route oral; conditions: in vivo
Rattus norvegicus [29] = test: Neurotoxicity in Sprague-Dawley rat assessed as neurological impairment at 30 mg/kg, po measured after 1 hr; format: toxicity, organism-based; set-up: dose 30 mg/kg, route oral; conditions: in vivo
Rattus norvegicus [30] = test: Neurotoxicity in Sprague-Dawley rat assessed as neurological impairment at 30 mg/kg, po measured after 2 hrs; format: toxicity, organism-based; set-up: dose 30 mg/kg, route oral; conditions: in vivo
Rattus norvegicus [31] = test: Neurotoxicity in Sprague-Dawley rat assessed as neurological impairment at 30 mg/kg, po measured after 4 hrs; format: toxicity, organism-based; set-up: dose 30 mg/kg, route oral; conditions: in vivo
Mus musculus [32] = test: Anticonvulsant activity in Carworth farms No.1 albino mouse assessed as protection against 6 Hz electric current-induced seizure at 100 mg/kg, ip measured after 0.25 hrs; format: functional, organism-based; set-up: dose 100 mg/kg
Mus musculus [33] = test: Anticonvulsant activity in Carworth farms No.1 albino mouse assessed as protection against 6 Hz electric current-induced seizure at 100 mg/kg, ip measured after 0.5 hrs; format: functional, organism-based; set-up: dose 100 mg/kg
Mus musculus [34] = test: Anticonvulsant activity in Carworth farms No.1 albino mouse assessed as protection against 6 Hz electric current-induced seizure at 100 mg/kg, ip measured after 1 hrs; format: functional, organism-based; set-up: dose 100 mg/kg
Mus musculus [35] = test: Anticonvulsant activity in Carworth farms No.1 albino mouse assessed as protection against 6 Hz electric current-induced seizure at 100 mg/kg, ip measured after 2 hrs; format: functional, organism-based; set-up: dose 100 mg/kg
Mus musculus [36] = test: Anticonvulsant activity in Carworth farms No.1 albino mouse assessed as protection against 6 Hz electric current-induced seizure at 100 mg/kg, ip measured after 4 hrs; format: functional, organism-based; set-up: dose 100 mg/kg
Mus musculus [37] = test: Neurotoxicity in Carworth farms No.1 albino mouse assessed as neurological impairment at 100 mg/kg, ip measured after 0.25 hrs; format: toxicity, organism-based; set-up: dose 100 mg/kg, route intraperitoneal; conditions: in vivo
Mus musculus [38] = test: Neurotoxicity in Carworth farms No.1 albino mouse assessed as neurological impairment at 100 mg/kg, ip measured after 1 hr; format: toxicity, organism-based; set-up: dose 100 mg/kg, route intraperitoneal; conditions: in vivo
Mus musculus [39] = test: Neurotoxicity in Carworth farms No.1 albino mouse assessed as neurological impairment at 100 mg/kg, ip measured after 2 hr; format: toxicity, organism-based; set-up: dose 100 mg/kg, route intraperitoneal; conditions: in vivo
Mus musculus [40] = test: Anticonvulsant activity in ip dosed Carworth farms No.1 albino mouse assessed as protection against 6 Hz electric current-induced seizure measured after 0.25 hrs; format: functional
Rattus norvegicus [41] = test: Anticonvulsant activity in Sprague-Dawley rat assessed as protection against pilocarpine-induced status at 600 mg/kg, ip measured after 0.5 hrs; format: functional, organism-based; set-up: dose 600 mg/kg
Rattus norvegicus [42] = test: Toxicity in Sprague-Dawley rat assessed as mortality at 600 mg/kg, ip measured after 0.5 hrs; format: organism-based; set-up: dose 600 mg/kg, route intraperitoneal; conditions: in vivo
Rattus norvegicus [43] = test: Toxicity in Sprague-Dawley rat assessed as body weight change in unprotected animal at 600 mg/kg, ip measured after 0.5 hrs; format: organism-based; set-up: dose 600 mg/kg, route intraperitoneal; conditions: in vivo
Rattus norvegicus [44] = test: Toxicity in Sprague-Dawley rat assessed as body weight change in protected animals at 600 mg/kg, ip measured after 0.5 hrs; format: organism-based; set-up: dose 600 mg/kg, route intraperitoneal; conditions: in vivo
Mus musculus [45] = species: Mus musculus; test: Anticonvulsant activity in maximum electroshock-induced Carworth farms No.1 albino mouse assessed as time of peak effect; format: functional
Mus musculus [46] = species: Mus musculus; test: Anticonvulsant activity in electric shock-induced Carworth farms No.1 albino mouse assessed as time of peak effect; format: functional

O=C1NC(=O)[C@H](c2ccccc2)N2CCCC[C@H]12
Activity (Mus musculus [1]): inactive | Activity (Mus musculus [2]): Active | Activity (Mus musculus [3]): Active | Activity (Mus musculus [4]): inactive | Activity (Mus musculus [5]): inactive | Activity (Mus musculus [6]): inactive | Activity (Mus musculus [7]): inactive | Activity (Mus musculus [8]): inactive | Activity (Mus musculus [9]): Active | Activity (Mus musculus [10]): inactive | Activity (Mus musculus [11]): inactive | Activity (Mus musculus [12]): inactive | Activity (Mus musculus [13]): Non-toxic | Activity (Mus musculus [14]): Toxic | Activity (Mus musculus [15]): Non-toxic | Activity (Mus musculus [16]): Non-toxic | Activity (Mus musculus [17]): Non-toxic | Activity (Mus musculus [18]): Toxic | ED50 (Mus musculus [19]): 95.7 mg/kg | ED50 (Mus musculus [20]): 99.2 mg/kg | TD50 at 0.25 h [21]: 151 mg/kg | Activity (Rattus norvegicus [22]): inactive | Activity (Rattus norvegicus [23]): inactive | Activity (Rattus norvegicus [24]): inactive | Activity (Rattus norvegicus [25]): inactive | Activity (Rattus norvegicus [26]): inactive | Activity (Rattus norvegicus [27]): Non-toxic | Activity (Rattus norvegicus [28]): Non-toxic | Activity (Rattus norvegicus [29]): Non-toxic | Activity (Rattus norvegicus [30]): Non-toxic | Activity (Rattus norvegicus [31]): Non-toxic | Activity (Mus musculus [32]): Active | Activity (Mus musculus [33]): Active | Activity (Mus musculus [34]): inactive | Activity (Mus musculus [35]): inactive | Activity (Mus musculus [36]): inactive | Activity (Mus musculus [37]): Non-toxic | Activity (Mus musculus [38]): Non-toxic | Activity (Mus musculus [39]): Non-toxic | ED50 (Mus musculus [40]): 32.3 mg/kg | Activity (Rattus norvegicus [41]): inactive | Activity (Rattus norvegicus [42]): Toxic | Activity (Rattus norvegicus [43]): -31 g | Activity (Rattus norvegicus [44]): -30 g | Time (Mus musculus [45]): 0.5 h | Time (Mus musculus [46]): 0.25 h

— ChEMBL document CHEMBL1944578, “Synthesis and anticonvulsant activity of novel 2,6-diketopiperazine derivatives. Part 2: Perhydropyrido[1,2-a]pyrazines” (Eur J Med Chem, 2012)
